How the values were obtained:
[1] = target: T1, rHuTS (recombinant human thymidylate synthase) (Homo sapiens, UniProt P04818); test: Enzyme kinetics of rHuTS with dUMP and BVdUMP; type: biochemical
T1 construct: His tag (from pET-28a(+)) (N); made in house; host or cells: E. coli BL21 (DE3)/pET-28a(+)
Experimental: Enzyme Preparation. Cloned human thymidylate synthase plasmid pBCHTS was subcloned into E. coli. BL21 (DE3)/pET-28a(+) (Novagen) using the Ndel ñSacI insertion site, in order to add an amino terminal His tag. Enzyme was expressed in E. coli. by induction with IPTG, and purified by affinity chromatography on a Ni^2+ His Bind metal chelation resin (Novagen). The column Ni^2+ His Bind metal chelation column was washed with 20 mM Tris pH 7.9, 5 mM imidazole, 0.5M NaCl; thymidylate synthase activity was eluted with 20 mM Tris pH 7.9, 60 mM imidazole, 0.5M NaCl.
(§1) Enzyme Assays and Kinetic Measurements. Thymidylate synthase assays were done in 96 well Costar UV transparent plates in a reaction volume of 200 μL, consisting of 40 mM Tris pH 7.5, 25 mM MgCl2, 1 mM EDTA, 25 mM-mercaptoethanol, 125M dUMP, and 65 μM N5, N10-methylene tetrahydrofolate indicated. Tetrahydrofolate stock solutions were prepared by dissolving tetrahydrofolic acid (Sigma) directly into 0.2M Tris pH 7.5, 0.5 M-mercaptoethanol; stock solutions were stored at −80° C. N5, N10-methylene tetrahydrofolate was prepared by adding 12 μl of 3.8% formaldehyde to 1 ml of a 0.65 mM solution of tetrahydrofolate and incubating for 5 minutes at 37° C. N5, N10-methylene tetrahydrofolate was kept on ice and used within 2 hours of preparation.
Enzyme kinetic constants (Km and Vmax) were determined for the human thymidylate synthase substrates dUMP and BVdUMP using the enzyme assay conditions described above. The initial rates of the enzyme reactions was determined by measuring the increase in A340 for the reaction with dUMP, and decrease in A294 for the reaction with BVdUMP. The catalytic efficiency of the enzyme (Kcat/Km) was calculated from the kinetic constants Km and Vmax.

rHuTS [2] = target: T2, rHuTS (Homo sapiens, UniProt P04818); test: Preincubation of rHuTS with BVdUMP (enzyme inactivation); type: biochemical; settings: 20 hour incubation with 125 μM BVdUMP, then dUMP as substrate
T2 construct: His tag (from pET-28a(+)) (N); made in house; host or cells: E. coli BL21 (DE3)/pET-28a(+)
T2 sequence (P04818 whole entry): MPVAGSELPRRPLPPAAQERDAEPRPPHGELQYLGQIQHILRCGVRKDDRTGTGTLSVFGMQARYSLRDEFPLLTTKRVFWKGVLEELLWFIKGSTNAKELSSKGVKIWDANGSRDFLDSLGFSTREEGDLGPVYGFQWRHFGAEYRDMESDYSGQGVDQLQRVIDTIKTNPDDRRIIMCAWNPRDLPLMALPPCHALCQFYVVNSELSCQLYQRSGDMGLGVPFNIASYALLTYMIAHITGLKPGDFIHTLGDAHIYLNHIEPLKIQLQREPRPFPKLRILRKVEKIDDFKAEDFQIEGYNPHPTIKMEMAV
Experimental: Human thymidylate synthase was pre-incubated in reaction mixtures with and without 125 μM BVdUMP. After 20 hours, BVdUMP was added to a concentration of 125 μM, dUMP to a final concentration of 125 μM, and N5, N10-methylene tetrahydrofolate was added to 70 μM. Thymidylate synthase activity was determined by measuring the increase in A340. Solid circles (preincubated reaction), Open circles (no preincubation).
To help further clarify this situation, an extended incubation of rHuTS with BVdUMP was done in order to measure any inactivation that may occur over a period of time longer than that in which the kinetics were performed (FIG. 2).

Lactobacillus casei TS = target: T3, Lactobacillus casei TS (Lacticaseibacillus casei, UniProt P00469); settings: cited from earlier work
T3 sequence (P00469 1-316): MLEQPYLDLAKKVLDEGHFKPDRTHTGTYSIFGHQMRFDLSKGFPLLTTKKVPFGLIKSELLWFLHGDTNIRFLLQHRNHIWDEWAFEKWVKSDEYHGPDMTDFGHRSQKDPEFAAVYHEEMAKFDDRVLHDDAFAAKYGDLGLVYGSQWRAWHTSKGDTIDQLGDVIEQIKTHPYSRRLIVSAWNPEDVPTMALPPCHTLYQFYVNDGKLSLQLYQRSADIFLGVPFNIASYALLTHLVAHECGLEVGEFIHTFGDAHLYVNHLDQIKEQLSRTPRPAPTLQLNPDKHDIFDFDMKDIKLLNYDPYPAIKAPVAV

rHuTS [3] = target: T2, rHuTS; test: Inhibition of rHuTS reactions by Tomudex and 5-FdUMP (initial rates); type: biochemical; settings: 30° C., fluorescence 340/595 nm
Experimental: as §1
Conversion of BVdUMP to fluorescent product(s) by thymidylate synthase was measured in 200 μl thymidylate synthase reactions containing 125M BVdUMP in 96 well Dynex Microfluor Black “U” bottom microtiter plates using an excitation wavelength of 340 nm and emission wavelength of 595 nm. Fluorescence was measured with a Tecan Spectrafluor Plus fluorimeter.

T1 sequence (P04818 whole entry): as the sequence (P04818 whole entry) above

Structure (SMILES): O=c1[nH]c(=O)n([C@H]2C[C@H](O)[C@@H](COP(=O)(O)O)O2)cc1/C=C/Br [BVdUMP, Bromovinyl, 2′-Deoxyuridine Monophosphate]
- Kcat ([1]; rHuTS): 0.0067 s⁻¹
- Ki ([1]; rHuTS, dUMP reaction, read-out: Kl (of BVdUMP)): 4.5 µM
- Km ([1]; rHuTS, substrate): 16 µM
- improved efficiency of conversion of BVdUMP, human enzyme vs L. casei enzyme ([1]; relative to endogenous substrate dUMP): > 6.4 fold
- inactivation of rHuTS (rHuTS [2]): little or no enzymatic inactivation
- Kcat (Lactobacillus casei TS): 0.018 s⁻¹
- Ki (Lactobacillus casei TS; dUMP reaction, read-out: Kl (of BVdUMP)): 0.6 µM
- Km (Lactobacillus casei TS; substrate): 3.3 µM
- initial rate of rHuTS reaction, No Inhibitor (rHuTS [3]; BVdUMP + THF): 109 ± 16 RFU/min
- initial rate of rHuTS reaction, No Inhibitor (rHuTS [3]; BVdUMP − THF): 75 ± 11 RFU/min

From patent US7462605B2, “Phosphoramidate compounds and methods of use” (Celmed Oncology (USA), Inc., priority 2002, dated 2008)
